How the values were obtained:
[1] = system: T-cells (CD3ε+) and NK-cells (CD56+); assay: IL-2-induced CD69 expression on T-cells and NK-cells incubated with or without MO (flow cytometry); type: cell-based, human
Description: FIG. 1 is a graph showing the protection of CD3ε+ T-cells against oxidative inhibition by DPI. Lymphocytes and MO were recovered from peripheral blood as described herein. A mixture of MO and lymphocytes was treated with culture medium (control, open circles) or IL-2 (100 U/ml; filled circles) for 16 hrs. After incubation, lymphocytes were labeled with antibodies to CD3ε and CD69. […] Similar results were obtained when CD69 expression was examined in CD56+. NK-cells incubated with MO: 29.5% (control) or 79.0% (DPI 1000 nM) of NK-cells acquired the CD69 antigen in response to IL-2. […] The results are representative of three similar experiments.
(§1) Peripheral venous blood was obtained as freshly prepared leukopacks from healthy blood donors at the Blood Centre, Sahlgren's Hospital, Goteborg, Sweden, to study the activation characteristics of cytotoxic lymphocytes in the presence and absence of MO, and ROM inhibitors. The blood (65 ml) was mixed with 92.5 ml Iscove's medium, 35 ml 6% Dextran (Kabi Pharmacia, Stockholm, Sweden) and 7.5 ml acid citrate dextrose (ACD) (Baxter, Deerfield, Ill.). After incubation for 15 minutes at room temperature, the supernatant was carefully layered onto Ficoll-Hypaque (Lymphoprep, Myegaard, Norway). Mononuclear cells (MNC) were collected at the interface after centrifugation at 380 g for 15 minutes at room temperature, washed twice in PBS and resuspended in Iscove's medium supplemented with 10% human AB+serum. During all further separation of cells, the cell suspensions were kept in siliconized test tubes (Vacuette, Greiner, Stockholm).
The MNC were further separated into lymphocyte and monocyte (MO) populations using the counter-current centrifugal elutriation (CCE) technique originally described by Yasaka and co-workers (Yasaka, T. et al., J. Immunol., 127:1515) with modifications as described in Hansson, M., et al. (J. Immunol., 156: 42 (1996); hereby incorporated by reference). Briefly, the MNC were resuspended in elutration buffer containing 0.05% BSA and 0.015% EDTA in buffered NaCl and fed into a Beckman J2-21 ultracentrifuge with a JE-6B rotor at 2100 rpm. A fraction with >90% MO was obtained at a flow rate of 18 ml/min. A lymphocyte fraction enriched for NK-cells (CD3^−/56^+ phenotype) and T-cells (CD3^+/56^−) was recovered at flow rates of 14-15 ml/min. This fraction contained <3% MO and consisted of CD3,^−/56^+ NK-cells (45-50%), CD3,^+/56^− T-cells (35-40%), CD3,^−/56^− cells (5-10%), and CD3,^+/56^+ cells (1-5%), as judged by flow cytometry. In some experiments, dynabeads (Dynal A/S, Oslo, Norway) coated with anti-CD56 were used to obtain purified lymphocyte preparations of T-cells, as described in detail by Hansson, M., et al., incorporated above.
Flow cytometry was used in the experiments described below to identify the various sub-populations of T-cells. Flow cytometry permits an investigator to examine a population of cells using a number of labeled probes to differentiate sub-populations within the larger whole. In these experiments, the CD3 marker was used to identify the sub-population of T-cells and the CD4 and CD8 markers were used to further identify the sub-population of T-cells into T helper cells and CTLs. The effects of MO exposure in the presence and absence of histamine and T-cell activation compounds were determined using the CD69 T-cell activation marker. The expression of the different markers was estimated in a lymphocyte gate using flow cytometry (as described in Hellstrand, K., et al. Cell. Immunol. 138: 44-54 (1991), and hereby incorporated by reference).
The following protocol was used in experiments reporting the detection of surface antigens of cell populations. One million cells were incubated with appropriate fluorescein isothiocynate (FITC) and phycoerythrin (PE) conjugated monoclonal antibodies (Becton & Dickinson, Stockholm, Sweden; 1:1/10^6 cells), on ice for 30 minutes. […]

mouse sarcoma (MCG) = assay: In vivo tumor growth of subcutaneously inoculated mouse sarcoma (MCG); set-up: species or system C57/b16 mice; settings: for Mean Tumor Weight: control .941
Description: The following in vivo study was conducted to determine DPI's effectiveness in inhibiting tumor growth rate. C57/b16 mice were subcutaneously inoculated with mouse sarcoma (MCG) on Day 1. The mice were then subcutaneously injected once daily for Days 1-9 with either NaCl or DPI. There were 5 different treatment groups, including the control group that received NaCl. The other four treatment groups were administered DPI subcutaneously at dosages of either 1 mg/kg, 10 mg/kg, 50 mg/kg, or 100 mg/kg. On Day 9, the mice were killed and tumor size and weight was measured. The resulting tumor weights are provided below in Table 2.

[2] = system: elutriated MO (monocytes/macrophages); assay: Chemiluminescence assay of spontaneous isoluminol-enhanced extracellular superoxide anion generation in elutriated MO; type: cell-based, human
Description: as §1, with “Stockholm). […]” for “Stockholm).”
To assess whether DPI and histamine inhibited the spontaneous release of ROM from MO, a chemiluminescence assay was performed that specifically quantified extracellular ROM (superoxide anion). The spontaneous isoluminol-enhanced extracellular generation of superoxide anion in elutriated MO was measured using the assay described in Hellstrand, K., et al., J Immunol, 153:4940-4947 (1994) and in Lundqvist & Dahlgren, Free Radic. […]

T-cells and NK-cells = assay: MO-induced apoptosis in T-cells and NK-cells (flow cytometry, reduced forward and increased right angle scatter); type: cell-based, human; settings: lymphocytes with MO, DPI 100 nM, Fas:Fc-IgG 20 μg/ml
[3] = Scavenging of superoxide anion; settings: 200 U/ml

## c1ccc([I+]c2ccccc2)cc1 [DPI, diphenyliodonium]
[1]; CD56+ NK-cells incubated with MO, DPI 1000 nM, IL-2 100 U/ml, 16 hrs, control 29.5%
  NK-cells that acquired the CD69 antigen in response to IL-2: 79.0%
[1]; DPI, lymphocytes with MO, IL-2 100 U/ml, 16 hours
  MO-induced inhibition of T-cells and NK-cells (IL-2-induced CD69): significantly reversed
[1]; incubated in the absence of MO
  IL-2-induced expression of CD69 in T-cells or NK-cells: did not increase
[1]; lymphocytes with MO, DPI 100 nM, Fas:Fc-IgG 20 μg/ml, control 36
  viable CD56+/69+ (gated events): 1248 gated events
[1]; lymphocytes with MO, DPI 100 nM, Fas:Fc-IgG 20 μg/ml, control 89
  viable CD3+/CD69+ (gated events): 701 gated events
Mouse sarcoma (MCG); 1 mg/kg s.c. once daily Days 1-9, Day 9
  Mean Tumor Weight: 1.107 gms
Mouse sarcoma (MCG); 10 mg/kg s.c. once daily Days 1-9, Day 9
  Mean Tumor Weight: .643 gms
Mouse sarcoma (MCG); 50 mg/kg s.c. once daily Days 1-9, Day 9
  Mean Tumor Weight: .638 gms
Mouse sarcoma (MCG); 100 mg/kg s.c. once daily Days 1-9, Day 9
  Mean Tumor Weight: .473 gms
Mouse sarcoma (MCG); 1, 10, 50, 100 mg/kg s.c. once daily Days 1-9
  effect on tumor growth rate in vivo: dose dependent inhibiting effect
[2]; DPI 10 nM, MO from three blood donors
  reduction of released extracellular superoxide anion: more than four fold reduction
T-cells and NK-cells; control 52
  apoptotic CD3+/CD69+(%): 7%
T-cells and NK-cells; control 71
  apoptotic CD56+/CD69+(%): 13%

## NCCc1c[nH]cn1 [histamine, reference compound]
[2]; histamine at 50 μM
  inhibition of the concentration of extracellular superoxide anion: more than five-fold

## Catalase [reference compound]
[1]; catalase at concentrations exceeding 50 U/ml
  MO-induced inhibition of IL-2-induced CD69 expression in T-cells and NK-cells: significantly reversed

## superoxide dismutase [reference compound]
[3]
  superoxide anion scavenged: > 90%
[1]; superoxide dismutase 200 U/ml
  MO-induced inhibition of IL-2-induced CD69 expression in T-cells and NK-cells: ineffective

From patent publication US20040120926A1, “Reactive oxygen metabolite inhibitors for use in compositions and methods of treatment” (priority 1999, published 2004)
